Legend:
[1] = test system: established adjuvant arthritis in the rat; assay: established adjuvant arthritis test; assay type: in vivo; conditions: dose ranging from about 5 to 25 mg/kg/p.o.
Method: The established adjuvant arthritis test for anti-arthritic activity is performed essentially as described in Proc. Soc. Biol. Med. 137, 506 (1971).

[2] = test system: phenyl-p-benzoquinone-induced writhing in mice; assay: phenyl-p-benzoquinone-induced writhing test for analgesic activity; assay type: in vivo; conditions: mouse, dose ranging from about 1 to 30 mg/kg p.o.
Method: The phenyl-p-benzoquinone-induced writhing test for analgesic activity, described in J. Pharmacol. Exp. Therap. 125, 237 (1959) is performed in mice as follows:
Mice previously fasted overnight are treated orally with the test compound dissolved in 0.75% methylcellulose at doses of 1 to 50 mg/kg, or with the vehicle alone, 55 minutes before the induction of the writhing syndrome by i.p. injection of 0.25 ml of a suspension of phenyl-p-benzoquinone (0.03%) in tragacanth (0.4%).
Starting 5 minutes, thereafter, the number of writhing movements provoked by the irritant are counted over an observation period of 10 minutes. The analgesic antinociceptive) ED50 of the test compound is the dose which reduces the mean frequency of writhing movements by 50% in comparison to the controls.

[3] = test system: BCG-immunized adjuvant arthritic rat; assay: skin test (delayed hypersensitivity) in the BCG-immunized adjuvant arthritic rat; assay type: in vivo; conditions: 25 mg/kg/p.o.
Method: The enhancement of cell-mediated immunity is determined in vivo in the BCG-immunized arthritic rat by measurement of delayed hypersensitivity reaction essentially as described in Current Therapeutic Research 30, S34 (1981).
Charles River male rats weighing 325-400 g are sensitized by intradermal injection into the right hind foot pad with […] per animal of Mycobacterium tuberculosis (Difco) emulsified in Freund's incomplete adjuvant. Animals are immunized with 0.1 ml of BCG vaccine intradermally on day 18 after adjuvant injection. Corn starch suspensions of drugs are administered orally. Control animals are dosed with cornstarch vehicle only. All animals are skin-tested with 10 μg PPD intradermally on day 29 to elicit skin reactions. The diameter of the erythema and induration reaction is measured 24 hours after antigen challenge. An increase in the diameter of the erythema is indicative of enhanced cellular immunity.

[4] = test system: proteoglycan matrix of bovine nasal septum cartilage; assay: cartilage-synovium co-culture model of cartilage matrix degradation; assay type: cell-based; conditions: concentration range of about 10^-7 M to 10^-5 M
Method: The compounds of the invention are also active in the cartilage-synovium co-culture model of cartilage matrix degradation, indicative of their effectiveness in osteoarthritis. The screen is carried out as follows:
The proteoglycan matrix of bovine nasal septum cartilage is labeled into vitro by incorporation of ^35 S into glycosaminoglycan. Cartilage slices are incubated overnight in a sulfate-free medium containing ^35 S-sodium sulfate. ^35 S-Labeled cartilage slices are co-cultured with normal synovium explants in multiwell tissue culture plates. After 4 days incubation a 100 μl aliquot of medium is counted. Cartilage slices are hydrolyzed and a 100 μl aliquot of cartilage hydrolysate is counted. The percent ^35 S released into the medium is determined and the percent of inhibition of matrix degradation is calculated.

SMILES | activity in the established adjuvant arthritis test [1] | activity in the phenyl-p-benzoquinone test for analgesia [2] | activity in the skin test (immunopotentiating activity) [3] | inhibition of cartilage matrix degradation in vitro [4]
N#CC(C(=O)Nc1ccccc1)C(=O)c1ccc[nH]1 (stereo not drawn) [Example 1, β-oxo-α-(phenylcarbamoyl)-β-(2-pyrrolyl)-propionitrile] | active | active | significant activity | inhibit cartilage matrix degradation
N#CC(C(=O)Nc1ccc(Cl)cc1)C(=O)c1ccc[nH]1 (stereo not drawn) [Example 2, β-oxo-α-(4-chlorophenylcarbamoyl)-β-(2-pyrrolyl)propionitrile] | active | active | significant activity | inhibit cartilage matrix degradation
N#CC(C(=O)Nc1ccc(F)cc1F)C(=O)c1ccc[nH]1 (stereo not drawn) [Example 3, β-oxo-α-(2,4-difluorophenylcarbamoyl)-β-(2-pyrrolyl)-propionitrile] | active | active | – | inhibit cartilage matrix degradation
N#CC(C(=O)Nc1ccc(F)cc1)C(=O)c1ccc[nH]1 (stereo not drawn) [Example 5, β-oxo-α-(4-fluorohenylcarbamoyl)-β-(2-pyrrolyl)-propionitrile] | active | active | – | –
